# Results published in patent publication US5041426A, “Immune system enhancing 3-β-d-ribofuranosylthiazolo[4,5-d]pyridimine nucleosides and nucleotides” (priority 1988, dated 1991).
# Values joined by “and” are separate entries in the source; they are usually repeats but may differ in a detail not shown here. Identical values can stand only once. Like-named read-outs stand apart in the source and are kept apart here.
# Legend:
# P388 = assay: Mean life span and viable tumor cells of P388 inoculated mice, by delivery schedule; assay type: in vivo, mouse; settings: qd; for Postinoculation Life Span: pooled 37, 62 or 104 mg/kg/injection; for Change in Life Span / Viable Cells Day 6: pooled doses
# Method: In this example as summarized in table 30, different drug delivery regimen were utilized for compound 7 against P388 in the mouse and the postinoculation life span, the change in life span and the number of viable tumor cells at day 6 measured. For this test the data shown are pooled by schedule without regard for dosage. Each treatment group included a total of 15 mice divided into sub-groups of 5 mice treated respectively with 37, 62 or 104 mg/kg/injection of drug per sub-group. After treatment the test animals were monitored for survival.
# ^a P388 ascites cells (1 × 10^6) were implanted ip in
# BDF1 female mice on day 0, and ip bolus injections of drug were
# delivered once daily on the days indicated. The drug was delivered on the
# basis of 0.01 ml/g mouse weight. Control mice received a 0.09% solution o
# NaCl delivered on the same basis.
# Human Coronavirus = assay: Antiviral activity against human coronavirus infection in 14 day old mice; settings: half daily doses at -24 and -18 h, of mice that died
# murine B16 melanoma = assay: Artificially induced pulmonary metastatic foci of B16 melanoma in mice; assay type: in vivo, mouse; settings: Group 2: 100 mg/kg i.p. 24 h before tumor injection
# Method: Test drug, compound 7, was given to groups of test animals. The groups includes a first control group, a second group given drug 24 hours prior to intravenous tumor injection, a third group given drug both 24 hours prior to intravenously tumor injection and 72 hours post tumor injection and a fourth group given drug 72 hours post tumor injection.
# ^a 10 week old, female C57B1/6 mice in groups of 5 each were injected
# intravenously with 5 × 10^5 of B16 melanoma tumor cells. The
# mice in groups 2, 3 and 4 were treated by injection of 100 mg/kg of drug
# [1] = test system: Reticulum-cell Sarcoma M5076; assay: Mean life span of mice with metastatic reticulum-cell sarcoma; assay type: in vivo, mouse
# Method: Effect of drug treatment on the mean life span of host animals implanted with metastatic reticulum-cell sarcoma M5076 was measured using the same test protocol as per example 54. The host animals were drug dosed for 20 days as per example 54, however, as opposed to example 54 they were monitored for survival.
# ^a Fragments of reticulumcell sarcoma M5076 (≈14 mg) were
# implanted sc in the left flank of BDF1 female mice and ip bolus
# injections of drug were initiated 24 hrs later. The drug was delivered on
# the basis of 0.01 ml/g mouse weight. Control mice received a 0.09%
# solution of NaCl delivered on the same basis. Six mice were used per
# treatment group. Treatment give qd for days 1-20 and animals monitored
# after treatment for survival.
# San Angelo Virus [2] = assay type: in vivo, mouse; settings: for Mean Survival Time: Time (21 days)
# [3] = test system: Encephalomyocarditis virus; assay: Single versus multiple treatments on Encephalomyocarditis virus infection in mice; assay type: in vivo, mouse; settings: for Mean Survival Time: of mice that died
# San Angelo Virus [4] = assay type: in vivo, mouse; settings: compound 7 5 mg/kg at -24 h, saline days 0-6; of mice that died
# YAC1 target cells = assay: Natural killer cell activity in nude/nude mice (in vivo treatment, spleen cells); parameters: species or system mouse
# Description: Compound 7 was also able to potentiate markedly the natural killer cell activity in T cell deficient (nude/nude) mice as is shown in Table 6.
# ^a Three mice in each group received saline or compound 7 through i.p
# route, spleens were removed one day after the treatment, cells were
# cells. Each value represents average ±SD cytotoxic activity of three
# Friend Leukemia virus = Friend Leukemia virus induced spleenomegaly; assay type: in vivo; settings: further test
# Description: As is evident from the above tables antiviral activity against a variety of viruses is seen.
# sheep red blood cells = assay: Primary anti-sheep red blood cell antibody response in mice (plaque assay); assay type: in vivo, mouse; settings: C57BL/6, + SRBC, day 6
# Method: Compound 7 was tested to determine its effects on primary antibody response against sheep red blood cells in vivo. Mice (C57BL/6) in groups of 4 were injected intraperitoneally with 0.1% sheep red blood cell suspended in saline. At various times compound 7 in various concentrations was administered intraperitoneally.
# ^a Groups of four C57BL/6 mice were injected i.p. with 6.5 ×
# 10^6 SRBC and various doses of compound 7. The number of PFC to SRBC
# (shown as mean ± SD) were determined on day 6 as described in Cheever.
# For Table 9 the number of antibody cells was determined by the modified Jerne, Nordin plaque assay as disclosed in Jerne, N. K., Nordin, A. A., Science 140:405, 1963.
# Influenza B Virus = assay: Antiviral activity against Influenza B virus infection in mice; assay type: in vivo, mouse; settings: for Mean Survival Time: once a day at -2 h and days 2, 4, 6
# Method: Compound 7 was tested therapeutically against Influenza B Virus Infection in Mice. In addition to a saline control Ribavirin, a known antiviral, was utilized for test purposes.
# hours previrus inoculation.
# ^c p < .001 twotailed ttest.
smiles,measurement,setting,value
"Nc1nc2c(sc(=O)n2[C@@H]2O[C@H](CO)[C@@H](O)[C@H]2O)c(=O)[nH]1 [Compound 7, 5-Amino-3-β-D-ribofuranosylthiazolo[4,5-d]pyrimidine-2,7(6H)-dione]",Postinoculation Life Span,"P388; day 2,4",8.73 ± 0.59 days
same,Change in Life Span,"P388; day 2,4",7 % of Control
same,Viable Cells Day 6,"P388; day 2,4",66 % of Control
same,Postinoculation Life Span,"P388; day 2-6, p < 0.001",9.13 ± 0.52 days
same,Change in Life Span,P388; day 2-6,12 % of Control
same,Viable Cells Day 6,P388; day 2-6,49 % of Control
same,Postinoculation Life Span,P388; day 2,8.60 ± 0.51 days
same,Change in Life Span,P388; day 2,5 % of Control
same,Viable Cells Day 6,P388; day 2,73 % of Control
same,Mean Survival Time,Human Coronavirus; 50 mg/kg,6.9 ± 2.2 days
same,Mean Survival Time,Human Coronavirus; 100 mg/kg,7.2 ± 2.0 days
same,Mean Survival Time,Human Coronavirus; 200 mg/kg,7.0 ± 1.4 days
same,Mean No. Of Metastatic Foci in Lungs,murine B16 melanoma,8
same,Increased Life Span,[1]; 37 mg/kg ip qd days 1-20,7.0 % of Control
same,Postinoculation Life Span,[1]; 37 mg/kg ip qd days 1-20,32.33 ± 3.67 days
same,Increased Life Span,[1]; 62 mg/kg ip qd days 1-20,19.8 % of Control
same,Postinoculation Life Span,"[1]; 62 mg/kg ip qd days 1-20, p 0.01",36.33 ± 0.82 days
same,Increased Life Span,[1]; 104 mg/kg ip qd days 1-20,20.3 % of Control
same,Postinoculation Life Span,"[1]; 104 mg/kg ip qd days 1-20, p < 0.03",36.50 ± 4.55 days
same,Mean Survival Time,"San Angelo Virus [2]; 50 mg/kg/day, once a day at -2 h and days 2, 4, 6",> 13.0 ± 0.0 days
same,Mean Survival Time,"San Angelo Virus [2]; 100 mg/kg/day, once a day at -2 h and days 2, 4, 6",> 21 days
same,Mean Survival Time,"San Angelo Virus [2]; 200 mg/kg/day, -2 h and days 2, 4, 6, half daily doses twice a day",> 21 days
same,Mean Survival Time,"San Angelo Virus [2]; 200 mg/kg/day, half-daily doses at 24 and 16 h pre-virus (prophylactic)",> 21 days
same,antiviral activity compared with Ribavirin,San Angelo Virus [2]; therapeutic and prophylactic mode,antiviral activity equal to that of Ribavirin
same,Mean Survival Time,"[3]; 200 mg/kg at -24 h, then 50 mg/kg/day day 0-6",9.5 ± 2.1 days
same,Mean Survival Time,[3]; 200 mg/kg at -24 h only,6.0 ± 1.3 days
same,"protection, daily 50 mg/kg versus single 200 mg/kg dose",[3]; daily dose of 50 mg/kg after 200 mg/kg,protected to a greater degree
same,Mean Survival Time,San Angelo Virus [4],9.6 ± 1.6 days
same,% Natural Killer Cell Cytotoxicity,"YAC1 target cells; 1.67 mg i.p., E:T 50:1",43 ± 12%
same,% Natural Killer Cell Cytotoxicity,"YAC1 target cells; 1.67 mg i.p., E:T 100:1",56 ± 12%
same,% Natural Killer Cell Cytotoxicity,"YAC1 target cells; 1.67 mg i.p., E:T 150:1",61 ± 14%
same,% Natural Killer Cell Cytotoxicity,"YAC1 target cells; 3.34 mg i.p., E:T 50:1",38 ± 6%
same,% Natural Killer Cell Cytotoxicity,"YAC1 target cells; 3.34 mg i.p., E:T 100:1",56 ± 6%
same,% Natural Killer Cell Cytotoxicity,"YAC1 target cells; 3.34 mg i.p., E:T 150:1",61 ± 12%
same,increase with respect to saline control,YAC1 target cells; both doses tested,over two fold
same,antiviral activity against Friend Leukemia virus induced spleenomegaly,Friend Leukemia virus,little or no antiviral activity
same,PFC/10^6 Spleen Cells,sheep red blood cells; 1.9 mg i.p.,143 ± 140 PFC/10^6 Spleen Cells
same,PFC/10^6 Spleen Cells,sheep red blood cells; 2.97 mg i.p.,307 ± 156 PFC/10^6 Spleen Cells and 165 ± 28 PFC/10^6 Spleen Cells
same,PFC/10^6 Spleen Cells,sheep red blood cells; 3.3 mg i.p.,176 ± 105 PFC/10^6 Spleen Cells
same,PFC/10^6 Spleen Cells,sheep red blood cells; 4.95 mg i.p.,467 ± 170 PFC/10^6 Spleen Cells and 433 ± 172 PFC/10^6 Spleen Cells
same,PFC/10^6 Spleen Cells,sheep red blood cells; 4.97 mg i.p.,371 ± 56 PFC/10^6 Spleen Cells
same,Mean Survival Time,Influenza B Virus; 50 mg/kg/day,6.4 ± 1.5 days
same,Mean Survival Time,Influenza B Virus; 100 mg/kg/day,6.6 ± 1.1 days
same,efficacy against influenza B (in words),Influenza B Virus; Table 12,"efficacy between saline, having no antiviral activity against influenza, and Ribavirin"
same,"antiviral activity against influenza B virus, further test",Influenza B Virus; further test,little or no antiviral activity
